{"source": "patent US20210268030A1", "about": "“FIBROADIPOGENIC PROGENITOR-DERIVED EXOSOMES FOR REGENERATION OF DYSTROPHIC MUSCLES” (EXOFIX S.R.L., priority 2018, published 2021)", "tested_on": "miRs within FAP-derived exosomes", "test": "Taqman-based miR expression microarray of FAP-derived exosomes", "assay_type": "in vivo", "conditions": "mdx mice treated for 15 days with TSA vs control vehicle", "protocol": "Total exosomal RNA was extracted with Total Exosome RNA Protein Isolation Kit (#4478545, Thermo Fisher Scientific). TaqMan MicroRNA Assays were performed according to the manufacturer's recommended protocols (Applied Biosystems) The threshold cycle (Ct) were defined as the fractional cycle number at which the fluorescence passes the fixed threshold. U6 snRNA served as an endogenous control for normalization.\nIn particular, total exosomal-RNA was retro-transcribed using TaqMan MicroRNA Reverse Transcription Kit (#4366596, ThermoFisher Scientific)\nFor greater sensitivity, the cDNA was pre-amplified using Taqman PREAMP master mix (#4391128, ThermoFisher Scientific) and Megaplex PreAMP Primers and then amplified using high multiplexed Megaplex Primer Pool (#4444766, ThermoFisher Scientific) and the TaqMan 2× Universal Master Mix II (#4440040, ThermoFisher Scientific) on TaqMan rodent MicroRNA A/B cards Array version 3.0 (#4444909, ThermoFisher Scientific).\nWe then determined the identity of the miRs within FAP-derived exosomes, by performing a Taqman-based miR expression microarray from exosomes isolated from the supernatant of FAPs derived by mdx mice treated for 15 days with TSA or control vehicle (CTR)."}
{"smiles": "CC(/C=C/C(=O)NO)=C\\[C@@H](C)C(=O)c1ccc(N(C)C)cc1", "note": "[TSA, Trichostatin A]", "values": [{"measurement": "miRs in exosomes from FAPs", "value": "several miRs up-regulated"}]}
